# Test results reported in ChEMBL document CHEMBL4651402, “Screening of ~5500 FDA-approved drugs and clinical candidates for anti-SARS-CoV-2 activity” (2021).
# Where a name gives a salt, the structure may show the parent alone.
# Tested on: SARS-CoV-2
# Assay: microbe, parasite or virus in culture
# Conditions: Severe acute respiratory syndrome coronavirus 2, Vero C1008, 48 h
Structure (SMILES),IC50,IC50 (read-out: pIC50 (converted))
CCC(OC(C)=O)C(CC(C)NC)(c1ccccc1)c1ccccc1 (configuration not stated) [NORACYMETHADOL],> 20 µM,> 20 µM
CCN(C(=O)c1c(O)c2c(Cl)cccc2n(C)c1=O)c1ccccc1 [LAQUINIMOD],> 20 µM,> 20 µM
C[C@H](C(=O)O)c1ccc2cc(OCc3ccc4ccccc4n3)ccc2c1,> 20 µM,> 20 µM
CC(C)OC(=O)[C@H](C)NP(=O)(OC[C@H]1O[C@@H](n2ccc(=O)[nH]c2=O)[C@](C)(F)[C@@H]1O)Oc1ccccc1 (some centres not stated),> 20 µM,> 20 µM
O=C(O)COCCN1CCN(C(c2ccccc2)c2ccc(Cl)cc2)CC1 (configuration not stated) [CETIRIZINE],> 20 µM,> 20 µM
Cn1nnc2ccc(C(c3ccc(Cl)cc3)n3cncn3)cc21 (stereo not drawn) [rac-VOROZOLE],> 20 µM,> 20 µM
COc1cc(-c2ccc(=O)[nH]n2)ccc1OC(F)F [ZARDAVERINE],> 20 µM,> 20 µM
NC(=O)N/N=C/c1ccc([N+](=O)[O-])o1 [NITROFURAZONE],> 20 µM,> 20 µM
C[C@]12CCC(=O)C(O)=C1CC[C@@H]1[C@@H]2CC[C@]2(C)C(=O)CC[C@@H]12 [FORMESTANE],> 20 µM,> 20 µM
Clc1cc(Cl)c(OCC#CI)cc1Cl [HALOPROGIN],> 20 µM,> 20 µM
CCOP(=O)(O)OCC [DIETHYL HYDROGEN PHOSPHATE],> 20 µM,> 20 µM
CCCC(CCC)C(=O)O[C@H]1C[C@H]2CC[C@@H](C1)[N+]2(C)C [ANISOTROPINE],> 20 µM,> 20 µM
C[C@@H]1NC(=O)NC1=O,> 20 µM,> 20 µM
CC1(C)Oc2ccc(C#N)cc2[C@@H](N2CCCC2=O)[C@@H]1O [LEVCROMAKALIM],> 20 µM,> 20 µM
CSc1nc2cc(Cl)c(Oc3cccc(Cl)c3Cl)cc2[nH]1 [TRICLABENDAZOLE],> 20 µM,> 20 µM
CCCc1c2oc(C(=O)O)cc(=O)c2cc2c(=O)cc(C(=O)O)oc12 [PROBICROMIL],> 20 µM,> 20 µM
O[C@H]1[C@H](O)[C@@H](O)O[C@H]2COC(c3ccccc3)O[C@H]12 (some centres not stated),> 20 µM,> 20 µM
CCn1cnc(C(=O)NC)c1C(=O)NC,> 20 µM,> 20 µM
CC(=O)OCC(=O)[C@@]1(O)CC[C@H]2[C@@H]3CCC4=CC(=O)CC[C@]4(C)[C@H]3C(=O)C[C@@]21C [CORTISONE ACETATE],> 20 µM,> 20 µM

Structure (SMILES),IC50,IC50 (read-out: pIC50 (converted))
O=C1c2cccnc2OC[C@@H]2CCCN12,> 20 µM,> 20 µM
Cc1cc(CCCCCOc2c(Cl)cc(C3=NCCO3)cc2Cl)on1 [WIN-54954],> 20 µM,> 20 µM
C[C@@](O)(COc1ccc(C#N)cc1)C(=O)Nc1ccc(C#N)c(C(F)(F)F)c1,> 20 µM,> 20 µM
CCOC(=O)NC1=C(N2CC2)C(=O)C(NC(=O)OCC)=C(N2CC2)C1=O [DIAZIQUONE],> 20 µM,> 20 µM
CCOc1ccccc1C(N)=O [ETHENZAMIDE],> 20 µM,> 20 µM
CCCCNc1ccc(C(=O)OCCOCCOCCOCCOCCOCCOCCOCCOCCOC)cc1 [BENZONATATE],> 20 µM,> 20 µM
O=C1O[C@H]([C@@H](O)CO)C(O)=C1O [ASCORBIC ACID],> 20 µM,> 20 µM
NCCC(O)C(=O)N[C@@H]1C[C@H](N)[C@@H](OC2O[C@H](CN)[C@@H](O)[C@H](O)[C@H]2N)[C@H](OC2O[C@H](CO)C(O)[C@H]2O)[C@H]1O (some centres not stated),> 20 µM,> 20 µM
CS(=N)(=O)CCC(N)C(=O)O (configuration not stated),> 20 µM,> 20 µM
CC[C@]12CCCN3CCc4c(n(c5ccccc45)[C@@](O)(C(=O)OC)C1)[C@@H]32 [VINCAMINE],> 20 µM,> 20 µM
COc1ccc(CN2CCNCC2)c(OC)c1OC [TRIMETAZIDINE],> 20 µM,> 20 µM
O=C1C(CC[S+]([O-])c2ccccc2)C(=O)N(c2ccccc2)N1c1ccccc1 (configuration not stated) [SULFINPYRAZONE],> 20 µM,> 20 µM
C[C@H]1c2nnn(-c3ncc(F)cn3)c2CCN1C(=O)c1cccc(C(F)(F)F)c1Cl,> 20 µM,> 20 µM
O=c1[nH]c2cc(Cl)ccc2n1C1CCN(CCCC(c2ccc(F)cc2)c2ccc(F)cc2)CC1 [CLOPIMOZIDE],> 20 µM,> 20 µM
CCn1ncnc1COc1nn2c(-c3ccccc3F)nnc2cc1C(C)(C)C [MK-0777],> 20 µM,> 20 µM
[2H]c1c([2H])c(-c2ccc(F)cc2F)c([2H])c(C(=O)O)c1O,> 20 µM,> 20 µM
CO[C@H]1C[C@@H]2CC[C@@H](C)[C@@](O)(O2)C(=O)C(=O)N2CCCC[C@H]2C(=O)O[C@H]([C@H](C)C[C@@H]2CC[C@@H](O)[C@H](OC)C2)CC(=O)[C@H](C)/C=C(\C)[C@@H](O)[C@@H](OC)C(=O)[C@H](C)C[C@H](C)/C=C/C=C/C=C/1C [SIROLIMUS],> 20 µM,> 20 µM
O=C(O)Cc1sc(-c2ccccc2)nc1-c1ccc(Cl)cc1 [FENTIAZAC],> 20 µM,> 20 µM
COc1ncnc(NS(=O)(=O)c2ccc(N)cc2)c1OC [SULFADOXINE],> 20 µM,> 20 µM

Structure (SMILES),IC50,IC50 (read-out: pIC50 (converted))
OC(C1=NCCN1)(c1ccc(Cl)cc1)c1ccccn1 (configuration not stated) [DAZADROL],> 20 µM,> 20 µM
C#C[C@]1(O)CC[C@H]2[C@@H]3CC[C@H]4Cc5nn(S(C)(=O)=O)cc5C[C@]4(C)[C@H]3CC[C@@]21C [ZANOTERONE],> 20 µM,> 20 µM
CC1(C)Oc2ccc(OC(F)(F)F)cc2[C@@H](N2Cc3ccccc3C2=O)C1O (some centres not stated),> 20 µM,> 20 µM
Cn1c(=O)c2c(ncn2CCOC(=O)C(C)(C)Oc2ccc(Cl)cc2)n(C)c1=O [THEOFIBRATE],> 20 µM,> 20 µM
COc1ccc2c(c1)C=C1Cn3c-2c(C2CCCCC2)c2ccc(cc23)C(=O)NS(=O)(=O)N(C)CCOCCN(C)C1=O [TMC-647055],> 20 µM,> 20 µM
CCOC(=O)c1ccc(OC(=O)CCCCCNC(=N)N)cc1 [GABEXATE],> 20 µM,> 20 µM
O=C1CCCO1 [BUTYROLACTONE],> 20 µM,> 20 µM
CN(C)C/C=C/C(=O)Nc1cc2c(Nc3ccc(F)c(Cl)c3)ncnc2cc1O[C@H]1CCOC1 [AFATINIB],> 20 µM,> 20 µM
CNCC(O)c1cccc(NS(C)(=O)=O)c1 (configuration not stated) [AMIDEPHRINE MESYLATE],> 20 µM,> 20 µM
C[C@]12CC[C@H](O)C[C@@H]1CC[C@@H]1C2CC[C@]2(C)[C@@H](C3=CC(=O)OC3)CC[C@]12O (some centres not stated),> 20 µM,> 20 µM
C[C@@H](O[C@H]1OCCN(Cc2n[nH]c(=O)[nH]2)[C@H]1c1ccc(F)cc1)c1cc(C(F)(F)F)cc(C(F)(F)F)c1 [APREPITANT],> 20 µM,> 20 µM
CC(O)COC[C@H]1O[C@@H]2O[C@H]3[C@H](O)[C@@H](O)[C@@H](O[C@H]4[C@H](O)[C@@H](O)[C@@H](O[C@H]5[C@H](O)[C@@H](O)[C@@H](O[C@H]6[C@H](O)[C@@H](O)[C@@H](O[C@H]7[C@H](O)[C@@H](O)[C@@H](O[C@H]8[C@H](O)[C@@H](O)[C@@H](O[C@H]1[C@H](O)[C@H]2O)O[C@@H]8COCC(C)O)O[C@@H]7COCC(C)O)O[C@@H]6COCC(C)O)O[C@@H]5COCC(C)O)O[C@@H]4COCC(C)O)O[C@@H]3COCC(C)O (stereo partly drawn) [2-HYDROXYPROPYL-BETA-CYCLODEXTRIN],> 20 µM,> 20 µM
C/N=C(\NS(=O)(=O)c1ccc(Cl)cc1)N1C[C@@H](c2ccccc2)C(c2ccc(Cl)cc2)=N1 (racemic),> 20 µM,> 20 µM
C=C(CC)C(=O)c1ccc(OCC(=O)O)c(Cl)c1Cl [ETHACRYNIC ACID],> 20 µM,> 20 µM
CN1C(=O)COc2c(C(=O)NC3CN4CCC3CC4)cc(Cl)cc21 (configuration not stated) [AZASETRON],> 20 µM,> 20 µM
N=C(N)NC(=O)c1nc(Cl)c(N)nc1N [AMILORIDE],> 50.1 µM,> 50.1 µM
COc1cc([S+](C)[O-])ccc1-c1nc2cccnc2[nH]1 (configuration not stated) [SULMAZOLE],> 20 µM,> 20 µM
C[C@@H]1CC[C@@]2(OC1)O[C@H]1C[C@H]3[C@H]4CC[C@H]5C[C@@H](O[C@@H]6O[C@H](CO)[C@@H](O[C@@H]7O[C@H](CO)[C@@H](O)[C@H](O)[C@H]7O)[C@H](O)[C@H]6O)CC[C@@]5(C)[C@H]4CC[C@]3(C)[C@H]1[C@@H]2C,> 20 µM,> 20 µM
